Test system: GNS166 cells
Assay: Label-free proteomics differential expression
Format: cell-based, human
Method: Proteomic studies were performed by the Proteomics Facility of the CIC bioGUNE by label-free relative quantification on nLC MS/MS. […] In both approaches, the top 20 enriched terms were plotted and the pathways were clustered using divisive hierarchical clustering based on pairwise Jaccard distances.

Structure (SMILES): C#CCN(Cc1cc2cc(OCCCN3CCCCC3)ccc2n1S(=O)(=O)c1ccccc1)C(=O)CCCCCCC(=O)NO [DDI]
- LogFC CAF1B_HUMAN (protein Q13112 GN=CHAF1B): -1.512
- LogFC STK3_HUMAN (protein Q13188 GN=STK3): 0.6701
- Direction MD2L1_HUMAN (protein Q13257): Down
- LogFC MD2L1_HUMAN (protein Q13257): -1.113
- LogFC PABP4_HUMAN (protein Q13310 GN=PABPC4): -0.5988
- Direction MTA1_HUMAN (protein Q13330): Down
- LogFC MTA1_HUMAN (protein Q13330): -1.705
- Direction 2A5G_HUMAN (protein Q13362): Down
- LogFC 2A5G_HUMAN (protein Q13362): -1.224
- Direction SQSTM_HUMAN (protein Q13501): Down
- LogFC SQSTM_HUMAN (protein Q13501): -1.0987
- LogFC TBB3_HUMAN (protein Q13509 GN=TUBB3): 0.7942
- LogFC PKD2_HUMAN (protein Q13563 GN=PKD2): -0.7081
- LogFC TRA2A_HUMAN (protein Q13595 GN=TRA2A): -0.7095
- LogFC TBB2A_HUMAN (protein Q13885 GN=TUBB2A): 0.9316
- LogFC IDI1_HUMAN (protein Q13907 GN=IDI1): 0.7277
- Direction CKAP5_HUMAN (protein Q14008): Down
- LogFC CKAP5_HUMAN (protein Q14008): -0.6393
- Direction PDE1C_HUMAN (protein Q14123): Down
- LogFC PDE1C_HUMAN (protein Q14123): -1.117
- Direction EIF3A_HUMAN (protein Q14152): Down
- LogFC EIF3A_HUMAN (protein Q14152): -0.389
- Direction UBP2L_HUMAN (protein Q14157): Down
- LogFC UBP2L_HUMAN (protein Q14157): -0.8648
- LogFC TTL12_HUMAN (protein Q14166 GN=TTLL12): 0.5228
- Direction DOCK1_HUMAN (protein Q14185): Down
- LogFC DOCK1_HUMAN (protein Q14185): -1.615
- Direction DYHC1_HUMAN (protein Q14204): Down
- LogFC DYHC1_HUMAN (protein Q14204): -0.3165
- Direction NUCG_HUMAN (protein Q14249): Down
- LogFC NUCG_HUMAN (protein Q14249): -2.036
- Direction FLOT2_HUMAN (protein Q14254): Down
- LogFC FLOT2_HUMAN (protein Q14254): -1.186
- Direction GAS6_HUMAN (protein Q14393): Down
- LogFC GAS6_HUMAN (protein Q14393): -2.504
- LogFC PLSI_HUMAN (protein Q14651 GN=PLS1): 1.442
- Direction SMC1A_HUMAN (protein Q14683): Down
- LogFC SMC1A_HUMAN (protein Q14683): -0.5055
- LogFC LPIN1_HUMAN (protein Q14693 GN=LPIN1): 0.9551
- Direction UBP10_HUMAN (protein Q14694): Down
- LogFC UBP10_HUMAN (protein Q14694): -0.9311
- Direction KIF22_HUMAN (protein Q14807): Down
- LogFC KIF22_HUMAN (protein Q14807): -3.469
- LogFC CHD4_HUMAN (protein Q14839 GN=CHD4): -0.985
- Direction IMB1_HUMAN (protein Q14974): Down
- LogFC IMB1_HUMAN (protein Q14974): -0.6185
- Direction CND2_HUMAN (protein Q15003): Down
- LogFC CND2_HUMAN (protein Q15003): -1.758
- LogFC SART3_HUMAN (protein Q15020 GN=SART3): -0.5999
- Direction CND1_HUMAN (protein Q15021): Down
- LogFC CND1_HUMAN (protein Q15021): -2.0518
- Direction SNX17_HUMAN (protein Q15036): Down
- LogFC SNX17_HUMAN (protein Q15036): -1.453
- Direction SYK_HUMAN (protein Q15046): Down
- LogFC SYK_HUMAN (protein Q15046): -0.4877
- Direction OXA1L_HUMAN (protein Q15070): Down
- LogFC OXA1L_HUMAN (protein Q15070): -1.062
- LogFC PMVK_HUMAN (protein Q15126 GN=PMVK): 1.337
- Direction PLEC_HUMAN (protein Q15149): Down
- LogFC PLEC_HUMAN (protein Q15149): -0.7
- LogFC NECT1_HUMAN (protein Q15223 GN=NECTIN1): -1.589
- Direction LRC41_HUMAN (protein Q15345): Down
- LogFC LRC41_HUMAN (protein Q15345): -1.0607
- LogFC KS6A1_HUMAN (protein Q15418 GN=RPS6KA1): 1.988
- LogFC PP1R7_HUMAN (protein Q15435 GN=PPP1R7): 0.5315
- LogFC MARE2_HUMAN (protein Q15555 GN=MAPRE2): 3.286
- LogFC CIP4_HUMAN (protein Q15642 GN=TRIP10): 1.0065
- Direction PCH2_HUMAN (protein Q15645): Down
- LogFC PCH2_HUMAN (protein Q15645): -0.9654
- Direction MSMO1_HUMAN (protein Q15800): Down
- LogFC MSMO1_HUMAN (protein Q15800): -0.8085
- LogFC STXB2_HUMAN (protein Q15833 GN=STXBP2): 0.5821
- Direction PKN2_HUMAN (protein Q16513): Down
- LogFC PKN2_HUMAN (protein Q16513): -0.7145
- Direction DDB1_HUMAN (protein Q16531): Down
- LogFC DDB1_HUMAN (protein Q16531): -0.3715
- LogFC DPYL2_HUMAN (protein Q16555 GN=DPYSL2): 0.9356
- LogFC UBE2S_HUMAN (protein Q16763 GN=UBE2S): -1.229
- LogFC CP51A_HUMAN (protein Q16850 GN=CYP51A1): -0.6587
- LogFC CGT_HUMAN (protein Q16880 GN=UGT8): 1.956
- LogFC TRXR1_HUMAN (protein Q16881 GN=TXNRD1): 0.6582
- Direction NICA_HUMAN (protein Q92542): Down
- LogFC NICA_HUMAN (protein Q92542): -1.398
- Direction TM9S4_HUMAN (protein Q92544): Down
- LogFC TM9S4_HUMAN (protein Q92544): -1.2661
- LogFC TBCD5_HUMAN (protein Q92609 GN=TBC1D5): -0.4214
- LogFC NU205_HUMAN (protein Q92621 GN=NUP205): -0.751
- Direction PXDN_HUMAN (protein Q92626): Down
- LogFC PXDN_HUMAN (protein Q92626): -0.8349
- Direction AP2C_HUMAN (protein Q92754): Down
- LogFC AP2C_HUMAN (protein Q92754): -1.895
- Direction SYMPK_HUMAN (protein Q92797): Down
- LogFC SYMPK_HUMAN (protein Q92797): -0.8433
- LogFC KIFA3_HUMAN (protein Q92845 GN=KIFAP3): 1.431
- Direction ARHG1_HUMAN (protein Q92888): Down
- LogFC ARHG1_HUMAN (protein Q92888): -0.7775
- Direction ARHG2_HUMAN (protein Q92974): Down
- LogFC ARHG2_HUMAN (protein Q92974): -0.6456
- LogFC USP9X_HUMAN (protein Q93008 GN=USP9X): 0.7813
- Direction CUL5_HUMAN (protein Q93034): Down
- LogFC CUL5_HUMAN (protein Q93034): -0.617
- LogFC VPP1_HUMAN (protein Q93050 GN=ATP6V0A1): 1.447
- Direction MED12_HUMAN (protein Q93074): Down
- LogFC MED12_HUMAN (protein Q93074): -2.0643
- Direction KPBB_HUMAN (protein Q93100): Down
- LogFC KPBB_HUMAN (protein Q93100): -2.118
- Direction SEC62_HUMAN (protein Q99442): Down
- LogFC SEC62_HUMAN (protein Q99442): -2.138
- LogFC VAT1_HUMAN (protein Q99536 GN=VAT1): 1.276
- Direction NUP88_HUMAN (protein Q99567): Down
- LogFC NUP88_HUMAN (protein Q99567): -0.8011
- LogFC NEUS_HUMAN (protein Q99574 GN=SERPINI1): 4.964
- LogFC DNJC7_HUMAN (protein Q99615 GN=DNAJC7): -0.8769
- Direction MGST2_HUMAN (protein Q99735): Down
- LogFC MGST2_HUMAN (protein Q99735): -1.016

From paper PMC11971462, “Generation and validation of a novel multitarget small molecule in glioblastoma” (Cell Death & Disease, 2025)
